Laboratory results reported in US10420341B2, “Herbicidal phenylpyrimidines” (BASF SE, priority 2015, dated 2019).

Key:
[1] = system: ABUTH; test: greenhouse post-emergence herbicidal test; assay type: in vivo, Abutilon theophrasti; conditions: post-emergence method, scale from 0 to 100
Excerpt: (§1) The seeds of the test plants were sown separately for each species. For the post-emergence treatment, the test plants were first grown to a height of 3 to 15 cm, depending on the plant habit, and only then treated with the active ingredients which had been suspended or emulsified in water. For this purpose, the test plants were either sown directly and grown in the same containers, or they were first grown separately as seedlings and transplanted into the test containers a few days prior to treatment. Depending on the species, the plants were kept at 10-25° C. or 20-35° C., respectively. The test period extended over 2 to 4 weeks. During this time, the plants were tended, and their response to the individual treatments was evaluated. Evaluation was carried out using a scale from 0 to 100. 100 means no emergence of the plants, or complete destruction of at least the aerial moieties, and 0 means no damage, or normal course of growth. […] The plants used in the greenhouse experiments were of the following species: [table]

[2] = system: ECHCG; test: greenhouse pre-emergence herbicidal test; assay type: in vivo, Echinocloa crus-galli; conditions: pre-emergence method, scale from 0 to 100
Summary of the method: (§2)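 Compounds suspended or emulsified in water, sprayed pre-emergence directly after sowing; containers covered until rooting, kept at 10-25 °C or 20-35 °C by species. Damage scored 0-100 (100 = no emergence or complete destruction of aerial parts) after 2 to 4 weeks.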

[3] = system: POLCO; test: greenhouse post-emergence herbicidal test; assay type: in vivo, Polygonum convolvulus; conditions: post-emergence method, scale from 0 to 100
Excerpt: as §1

[4] = system: APESV; test: greenhouse pre-emergence herbicidal test; assay type: in vivo, Apera spica-venti; conditions: pre-emergence method, scale from 0 to 100
Summary of the method: as §2

[5] = system: ALOMY; test: greenhouse post-emergence herbicidal test; assay type: in vivo, Alopercurus myosuroides; conditions: post-emergence method, scale from 0 to 100
Summary of the method: (§3)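 Greenhouse plants, grown to 3–15 cm, were treated post-emergence with emulsified or suspended compound and assessed over 2–4 weeks on a 0–100 damage scale.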

[6] = system: AMARE; test: greenhouse post-emergence herbicidal test; assay type: in vivo, Amaranthus retroflexus; conditions: post-emergence method, application rate 500 g/ha, scale from 0 to 100
Excerpt: as §1

[7] = system: ECHCG; test: greenhouse post-emergence herbicidal test; assay type: in vivo, Echinocloa crus-galli; conditions: post-emergence method, application rate 500 g/ha, scale from 0 to 100
Summary of the method: as §3

[8] = system: AVEFA; test: greenhouse post-emergence herbicidal test; assay type: in vivo, Avena fatua; conditions: post-emergence method, application rate 500 g/ha, scale from 0 to 100
Summary of the method: as §3

## O=C(O)c1ccccc1-c1cnc(C2CC2)nc1C(=O)O [example 318]
[1]; application rate 2000 g/ha
  herbicidal activity against ABUTH: very good (a very good herbicidal activity is given at values of at least 85)
[2]; application rate 2000 g/ha
  herbicidal activity against ECHCG: very good (a very good herbicidal activity is given at values of at least 85)

## CC(C)(C)SC(=O)c1nc(C2CC2)ncc1-c1ccccc1Cl [example 281]
[3]; application rate 500 g/ha
  herbicidal activity against POLCO: very good (a very good herbicidal activity is given at values of at least 85)
[4]; application rate 500 g/ha
  herbicidal activity against APESV: very good (a very good herbicidal activity is given at values of at least 85)
[5]; application rate 500 g/ha
  herbicidal activity against ALOMY: very good (a very good herbicidal activity is given at values of at least 85)

## Cc1ccc(-c2cnc(C3CC3)nc2C(=O)O)c(C)c1 [example 168]
[3]; application rate 500 g/ha
  herbicidal activity against POLCO: very good (a very good herbicidal activity is given at values of at least 85)
[4]; application rate 500 g/ha
  herbicidal activity against APESV: very good (a very good herbicidal activity is given at values of at least 85)
[2]; application rate 500 g/ha
  herbicidal activity against ECHCG: very good (a very good herbicidal activity is given at values of at least 85)
[5]; application rate 500 g/ha
  herbicidal activity against ALOMY: good (A good herbicidal activity is given at values of at least 70)

## COC(=O)c1nc(C2CC2)ncc1-c1cc(Cl)ccc1Cl [example 204]
[3]; application rate 500 g/ha
  herbicidal activity against POLCO: very good (a very good herbicidal activity is given at values of at least 85)
[6]
  herbicidal activity against AMARE: very good (a very good herbicidal activity is given at values of at least 85)
[4]; application rate 500 g/ha
  herbicidal activity against APESV: very good (a very good herbicidal activity is given at values of at least 85)

## Cc1ccccc1-c1cnc(C(C)C)nc1C(=O)O [example 33]
[3]; application rate 500 g/ha
  herbicidal activity against POLCO: good (A good herbicidal activity is given at values of at least 70)
[7]
  herbicidal activity against ECHCG: good (A good herbicidal activity is given at values of at least 70)
[4]; application rate 500 g/ha
  herbicidal activity against APESV: very good (a very good herbicidal activity is given at values of at least 85)
[2]; application rate 500 g/ha
  herbicidal activity against ECHCG: very good (a very good herbicidal activity is given at values of at least 85)

## COc1ncc(-c2ccccc2Cl)c(C(=O)O)n1 [example 51]
[3]; application rate 500 g/ha
  herbicidal activity against POLCO: very good (a very good herbicidal activity is given at values of at least 85)
[7]
  herbicidal activity against ECHCG: good (A good herbicidal activity is given at values of at least 70)
[4]; application rate 500 g/ha
  herbicidal activity against APESV: very good (a very good herbicidal activity is given at values of at least 85)
[2]; application rate 500 g/ha
  herbicidal activity against ECHCG: very good (a very good herbicidal activity is given at values of at least 85)
[8]
  herbicidal activity against AVEFA: good (A good herbicidal activity is given at values of at least 70)

## COc1ccc(Cl)c(-c2cnc(C3CC3)nc2C(=O)O)c1 [example 145]
[3]; application rate 500 g/ha
  herbicidal activity against POLCO: very good (a very good herbicidal activity is given at values of at least 85)
[7]
  herbicidal activity against ECHCG: very good (a very good herbicidal activity is given at values of at least 85)
[4]; application rate 500 g/ha
  herbicidal activity against APESV: very good (a very good herbicidal activity is given at values of at least 85)
[2]; application rate 500 g/ha
  herbicidal activity against ECHCG: very good (a very good herbicidal activity is given at values of at least 85)

## COC(=O)c1nc(OC)ncc1-c1ccccc1Cl [example 61]
[3]; application rate 500 g/ha
  herbicidal activity against POLCO: very good (a very good herbicidal activity is given at values of at least 85)
[7]
  herbicidal activity against ECHCG: good (A good herbicidal activity is given at values of at least 70)
[4]; application rate 500 g/ha
  herbicidal activity against APESV: very good (a very good herbicidal activity is given at values of at least 85)
[2]; application rate 500 g/ha
  herbicidal activity against ECHCG: very good (a very good herbicidal activity is given at values of at least 85)
[5]; application rate 500 g/ha
  herbicidal activity against ALOMY: good (A good herbicidal activity is given at values of at least 70)

## COc1ccccc1-c1cnc(C(C)C)nc1C(=O)O [example 35]
[1]; application rate 1000 g/ha
  herbicidal activity against ABUTH: very good (a very good herbicidal activity is given at values of at least 85)
[4]; application rate 1000 g/ha
  herbicidal activity against APESV: very good (a very good herbicidal activity is given at values of at least 85)
[2]; application rate 1000 g/ha
  herbicidal activity against ECHCG: very good (a very good herbicidal activity is given at values of at least 85)

## CCOc1ncc(-c2cc(C)ccc2C)c(C(=O)O)n1 [example 68]
[3]; application rate 500 g/ha
  herbicidal activity against POLCO: very good (a very good herbicidal activity is given at values of at least 85)
[7]
  herbicidal activity against ECHCG: good (A good herbicidal activity is given at values of at least 70)
[4]; application rate 500 g/ha
  herbicidal activity against APESV: very good (a very good herbicidal activity is given at values of at least 85)
[2]; application rate 500 g/ha
  herbicidal activity against ECHCG: very good (a very good herbicidal activity is given at values of at least 85)

## CCOc1ncc(-c2ccccc2C)c(C(=O)O)n1 [example 67]
[3]; application rate 500 g/ha
  herbicidal activity against POLCO: very good (a very good herbicidal activity is given at values of at least 85)
[7]
  herbicidal activity against ECHCG: good (A good herbicidal activity is given at values of at least 70)
[4]; application rate 500 g/ha
  herbicidal activity against APESV: very good (a very good herbicidal activity is given at values of at least 85)
[2]; application rate 500 g/ha
  herbicidal activity against ECHCG: good (A good herbicidal activity is given at values of at least 70)

## COC(=O)c1nc(C2CC2)ncc1-c1cccc(F)c1Cl [example 210]
[3]; application rate 500 g/ha
  herbicidal activity against POLCO: very good (a very good herbicidal activity is given at values of at least 85)
[7]
  herbicidal activity against ECHCG: very good (a very good herbicidal activity is given at values of at least 85)
[4]; application rate 500 g/ha
  herbicidal activity against APESV: very good (a very good herbicidal activity is given at values of at least 85)
[2]; application rate 500 g/ha
  herbicidal activity against ECHCG: very good (a very good herbicidal activity is given at values of at least 85)

## Cc1ccc(C)c(-c2cnc(N(C)C)nc2C(=O)O)c1 [example 129]
[1]; application rate 500 g/ha
  herbicidal activity against ABUTH: good (A good herbicidal activity is given at values of at least 70)
[4]; application rate 500 g/ha
  herbicidal activity against APESV: very good (a very good herbicidal activity is given at values of at least 85)
[2]; application rate 500 g/ha
  herbicidal activity against ECHCG: good (A good herbicidal activity is given at values of at least 70)

## O=C(O)c1nc(C2CC2)ncc1-c1c(F)cc(Cl)cc1Cl [example 148]
[3]; application rate 250 g/ha
  herbicidal activity against POLCO: very good (a very good herbicidal activity is given at values of at least 85)
[4]; application rate 250 g/ha
  herbicidal activity against APESV: very good (a very good herbicidal activity is given at values of at least 85)
[5]; application rate 250 g/ha
  herbicidal activity against ALOMY: very good (a very good herbicidal activity is given at values of at least 85)

## COC(=O)c1nc(C2CC2)ncc1-c1ccccc1C(F)F [example 308]
[3]; application rate 500 g/ha
  herbicidal activity against POLCO: very good (a very good herbicidal activity is given at values of at least 85)
[4]; application rate 500 g/ha
  herbicidal activity against APESV: very good (a very good herbicidal activity is given at values of at least 85)
[2]; application rate 500 g/ha
  herbicidal activity against ECHCG: very good (a very good herbicidal activity is given at values of at least 85)
[5]; application rate 500 g/ha
  herbicidal activity against ALOMY: very good (a very good herbicidal activity is given at values of at least 85)
[8]
  herbicidal activity against AVEFA: very good (a very good herbicidal activity is given at values of at least 85)

## CCCOc1ccc(C(F)(F)F)cc1-c1cnc(C2CC2)nc1C(=O)O [example 306]
[1]; application rate 1000 g/ha
  herbicidal activity against ABUTH: very good (a very good herbicidal activity is given at values of at least 85)

## CCc1ncc(-c2ccccc2OC)c(C(=O)O)n1 [example 16]
[1]; application rate 2000 g/ha
  herbicidal activity against ABUTH: very good (a very good herbicidal activity is given at values of at least 85)
[4]; application rate 2000 g/ha
  herbicidal activity against APESV: very good (a very good herbicidal activity is given at values of at least 85)
[2]; application rate 2000 g/ha
  herbicidal activity against ECHCG: very good (a very good herbicidal activity is given at values of at least 85)

## O=C(O)c1nc(C2CC2)ncc1-c1ccccc1SC(F)(F)F [example 310]
[1]; application rate 1000 g/ha
  herbicidal activity against ABUTH: good (A good herbicidal activity is given at values of at least 70)

## O=C(O)c1nc(C2CC2)ncc1-c1ccccc1C(F)F [example 309]
[3]; application rate 500 g/ha
  herbicidal activity against POLCO: very good (a very good herbicidal activity is given at values of at least 85)
[4]; application rate 500 g/ha
  herbicidal activity against APESV: very good (a very good herbicidal activity is given at values of at least 85)
[2]; application rate 500 g/ha
  herbicidal activity against ECHCG: very good (a very good herbicidal activity is given at values of at least 85)
[5]; application rate 500 g/ha
  herbicidal activity against ALOMY: very good (a very good herbicidal activity is given at values of at least 85)
[8]
  herbicidal activity against AVEFA: very good (a very good herbicidal activity is given at values of at least 85)

## COC(=O)c1nc(C2CCC2)ncc1-c1ccccc1Cl [example 277]
[1]; application rate 500 g/ha
  herbicidal activity against ABUTH: very good (a very good herbicidal activity is given at values of at least 85)
[4]; application rate 500 g/ha
  herbicidal activity against APESV: good (A good herbicidal activity is given at values of at least 70)
